Assay results from patent publication US8093389B2, “Substituted spirochromanone derivatives” (Merck Sharp & Dohme Corp., priority 2007, dated 2012).
Structures can show the parent of a compound that is named as a salt.

Tests used:
human ACC2 = human ACC2 (Homo sapiens, UniProt O00763); experiment: Acetyl CoA carboxylase (ACC) activity inhibition test, human ACC2; assay type: biochemical; conditions: 1 μmol/liter test compound; read-out: Inhibition (%) by 1 μmol/liter Chemical, human ACC2
Experimental: (§1) A. Pharmacological Test Example (Acetyl CoA Carboxylase (ACC) Activity Inhibition Test)
(§2) A test compound is dissolved in dimethyl sulfoxide (DMSO) to a concentration of 10 mM and then diluted with DMSO to give a 100-fold concentrated solution of the compound compared with target assay concentration. The ACC enzyme activity inhibition test is carried out according to a modification of Thampy & Wakil's method (J. Biol. Chem., Vol. 260, pp. 6318-6323 (1985)). Concretely, 0.8 μl of the diluted test compound is added to each well of 96-well assay plate (Perkin Elmer Opti Plate), then 40 μl of a substrate solution (50 mM Hepes sodium (pH 7.5), 2 mM DTT, 10 mM ATP, 500 μM acetyl CoA, 0.17 mM NaH[^14C]O3 (58 mCi/mmol, by Amersham), 8 mM NaHCO3) is added to each well, and 40 μL of an enzyme solution (1 to 2 nM human ACC1 or human ACC2, 50 mM Hepes sodium (pH 7.5), 2 mM DTT, 40 mM MgCl2, 40 mM tripotassium citrate 1 mg/ml fetal bovine serum albumin) is added thereto. Then, the upper side of the plate is sealed up, and the plate is incubated with gently stirring at 37° C. for 40 minutes. Next, 20 μl of 1 N HCl is added to each well to stop the enzyme reaction, and the assay plate is stirred overnight to remove the unreacted NaH[^14C]O3. Next, 100 μl of a scintillator (Perkin Elmer's Microscinti 40) is added to each well and the plate is stirred, then the radioactivity of the fixed [^14C] is counted using a microplate scintillation counter (Perkin Elmer's Topcount), the radioactivity of which represents the enzyme activity in each well. The human ACC1 and human ACC2 enzyme-inhibition activities of the test compounds are calculated, based on the radioactivity of the well added by DMSO without test compound as a control.

human ACC1 = human ACC1 (Homo sapiens, UniProt Q13085); experiment: Acetyl CoA carboxylase (ACC) activity inhibition test, human ACC1; assay type: biochemical; conditions: 1 μmol/liter test compound; read-out: Inhibition (%) by 1 μmol/liter Chemical, human ACC1
Experimental: as §1, §2

Chain of human ACC2 (O00763 whole entry): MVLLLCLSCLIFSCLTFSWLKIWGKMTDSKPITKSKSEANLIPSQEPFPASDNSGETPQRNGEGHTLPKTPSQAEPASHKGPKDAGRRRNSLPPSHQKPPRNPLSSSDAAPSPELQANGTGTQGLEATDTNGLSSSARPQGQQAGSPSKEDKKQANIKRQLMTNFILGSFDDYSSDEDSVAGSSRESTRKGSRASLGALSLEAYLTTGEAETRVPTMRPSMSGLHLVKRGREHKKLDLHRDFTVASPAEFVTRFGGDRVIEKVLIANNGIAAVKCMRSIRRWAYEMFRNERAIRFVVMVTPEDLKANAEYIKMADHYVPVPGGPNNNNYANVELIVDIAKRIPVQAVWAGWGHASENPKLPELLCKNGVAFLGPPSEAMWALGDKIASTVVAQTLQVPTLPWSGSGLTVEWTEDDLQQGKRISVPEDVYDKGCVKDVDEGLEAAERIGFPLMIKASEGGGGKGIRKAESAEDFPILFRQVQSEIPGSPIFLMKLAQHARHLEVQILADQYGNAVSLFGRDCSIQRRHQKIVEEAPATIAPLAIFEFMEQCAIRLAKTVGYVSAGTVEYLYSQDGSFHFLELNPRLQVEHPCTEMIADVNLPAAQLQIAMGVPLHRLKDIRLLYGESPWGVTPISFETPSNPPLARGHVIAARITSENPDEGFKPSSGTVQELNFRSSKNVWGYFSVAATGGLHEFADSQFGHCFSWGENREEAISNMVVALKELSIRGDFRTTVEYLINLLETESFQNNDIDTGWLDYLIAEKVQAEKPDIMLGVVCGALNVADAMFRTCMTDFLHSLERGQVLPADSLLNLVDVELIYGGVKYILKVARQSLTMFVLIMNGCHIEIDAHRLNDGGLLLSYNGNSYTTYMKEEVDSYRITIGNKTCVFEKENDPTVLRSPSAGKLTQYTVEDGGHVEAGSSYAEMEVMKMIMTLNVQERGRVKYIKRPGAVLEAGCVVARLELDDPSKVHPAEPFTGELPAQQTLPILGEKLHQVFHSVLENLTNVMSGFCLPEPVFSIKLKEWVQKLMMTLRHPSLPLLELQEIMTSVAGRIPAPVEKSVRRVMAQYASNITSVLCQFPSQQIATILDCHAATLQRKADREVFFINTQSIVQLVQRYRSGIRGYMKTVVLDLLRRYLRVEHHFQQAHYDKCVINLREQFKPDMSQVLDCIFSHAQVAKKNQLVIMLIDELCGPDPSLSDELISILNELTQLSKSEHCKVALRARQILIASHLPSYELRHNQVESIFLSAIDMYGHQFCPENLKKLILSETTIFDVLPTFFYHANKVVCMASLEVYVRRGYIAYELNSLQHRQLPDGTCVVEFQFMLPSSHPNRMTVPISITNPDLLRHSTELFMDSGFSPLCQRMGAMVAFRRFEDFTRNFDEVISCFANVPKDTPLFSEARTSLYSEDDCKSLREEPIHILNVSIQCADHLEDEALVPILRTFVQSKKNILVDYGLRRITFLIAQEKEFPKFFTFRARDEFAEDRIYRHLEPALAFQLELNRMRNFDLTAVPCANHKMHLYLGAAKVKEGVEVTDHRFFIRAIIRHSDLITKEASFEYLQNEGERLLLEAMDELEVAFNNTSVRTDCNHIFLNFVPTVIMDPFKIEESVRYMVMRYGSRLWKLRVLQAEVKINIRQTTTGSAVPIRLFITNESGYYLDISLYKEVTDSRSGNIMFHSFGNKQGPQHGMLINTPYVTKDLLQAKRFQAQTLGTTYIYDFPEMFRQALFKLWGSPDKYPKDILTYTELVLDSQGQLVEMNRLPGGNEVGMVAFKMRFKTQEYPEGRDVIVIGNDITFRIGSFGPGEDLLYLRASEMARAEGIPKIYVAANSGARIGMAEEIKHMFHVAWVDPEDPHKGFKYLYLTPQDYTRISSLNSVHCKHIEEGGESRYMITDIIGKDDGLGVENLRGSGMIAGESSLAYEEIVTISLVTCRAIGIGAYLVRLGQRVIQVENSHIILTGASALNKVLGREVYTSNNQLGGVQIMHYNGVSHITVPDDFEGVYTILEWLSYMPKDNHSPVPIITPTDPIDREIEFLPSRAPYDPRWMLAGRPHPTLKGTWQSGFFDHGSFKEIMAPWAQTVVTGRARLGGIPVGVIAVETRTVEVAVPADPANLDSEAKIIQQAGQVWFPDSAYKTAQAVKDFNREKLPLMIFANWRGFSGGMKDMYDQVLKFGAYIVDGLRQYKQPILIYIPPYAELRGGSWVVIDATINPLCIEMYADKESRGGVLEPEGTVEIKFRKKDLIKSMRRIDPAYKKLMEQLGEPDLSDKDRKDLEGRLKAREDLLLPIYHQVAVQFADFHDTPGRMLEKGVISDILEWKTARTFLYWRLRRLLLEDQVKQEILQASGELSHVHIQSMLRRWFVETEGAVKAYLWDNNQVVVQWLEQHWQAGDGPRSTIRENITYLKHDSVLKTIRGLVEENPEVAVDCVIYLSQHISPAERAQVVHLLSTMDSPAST

CCn1cnc2c(OC)cc(C(=O)N3CCC4(CC3)CC(=O)c3cc(-c5nnn[nH]5)ccc3O4)cc21 [Example 1, 1-[(1-Ethyl-4-methoxy-1H-benzimidazol-6-yl)carbonyl]-6-(1H-tetrazol-5-yl)spiro[chroman-2,4′-piperidine]-4-one]
inhibition at 1 µM (human ACC2): 89%
inhibition at 1 µM (human ACC1): 91%

COc1cc(C(=O)N2CCC3(CC2)CC(=O)c2cc(-c4nnn[nH]4)ccc2O3)cn2c(C3CC3)cnc12 [Example 2, 1′-[(3-Cyclopropyl-8-methoxyimidazo[1,2-a]pyridin-6-yl)carbonyl]-6-(1H-tetrazol-5-yl)spiro[chroman-2,4′-piperidin]-4-one]
inhibition at 1 µM (human ACC2): 93%
inhibition at 1 µM (human ACC1): 93%

COc1cc(C(=O)N2CCC3(CC2)CC(=O)c2cc(-c4noc(=O)[nH]4)ccc2O3)cc2c1ccn2C1CC1 [Example 3, 1′-[(1-Cyclopropyl-4-methoxy-1H-indol-6-yl)carbonyl]-6-(5-oxo-4,5-dihydro-1,2,4-oxadiazol-3-yl)spiro[chroman-2,4′-piperidin]-4-one]
inhibition at 1 µM (human ACC2): 97%
inhibition at 1 µM (human ACC1): 100%

CCn1ccc2c(OCCO)cc(C(=O)N3CCC4(CC3)CC(=O)c3cc(-c5nnn[nH]5)ccc3O4)cc21 [Example 4, 1′-{[1-Ethyl-4-(2-hydroxyethoxy)-1H-indol-6-yl]carbonyl}-6-(1H-tetrazol-5-yl)spiro[chroman-2,4′-piperidin]-4-one]
inhibition at 1 µM (human ACC2): 97%
inhibition at 1 µM (human ACC1): 96%

COc1cc(C(=O)N2CCC3(CC2)CC(=O)c2cc(-c4cccc(C(=O)O)c4)ccc2O3)cc2c1ccn2C1CC1 [Example 5, Sodium 3-{1′-[(1-cyclopropyl-4-methoxy-1H-indol-6-yl)carbonyl]-4-oxospiro[chroman-2,4′-piperidin]-6-yl}benzoate]
inhibition at 1 µM (human ACC2): 99%
inhibition at 1 µM (human ACC1): 99%

COc1cc(C(=O)N2CCC3(CC2)CC(=O)c2cc(-c4cncc(C(=O)O)c4)ccc2O3)cc2c1ccn2C1CC1 [Example 7, 5-{1′-[(1-Cyclopropyl-4-methoxy-1H-indol-6-yl)carbonyl]-4-oxospiro[chroman-2,4′-piperidin]-6-yl}nicotinic acid sodium salt]
inhibition at 1 µM (human ACC2): 99%
inhibition at 1 µM (human ACC1): 100%

COc1cc(C(=O)N2CCC3(CC2)CC(=O)c2cc(-c4nnn[nH]4)ccc2O3)cc2c1ccn2OC [Example 8, 1′-{[1,4-Dimethoxy-1H-indol-6-yl]carbonyl}-6-(1H-tetrazol-5-yl)spiro[chroman-2,4′-piperidin]-4-one]
inhibition at 1 µM (human ACC2): 99%
inhibition at 1 µM (human ACC1): 99%

CCn1ncc2c(OC)cc(C(=O)N3CCC4(CC3)CC(=O)c3cc(-c5nnn[nH]5)ccc3O4)cc21 [Example 10, 1′-[(1-Ethyl-4-methoxy-1H-indazol-6-yl)carbonyl]-6-(1H-tetrazol-5-yl)spiro[chroman-2,4′-piperidin]-4-one]
inhibition at 1 µM (human ACC2): 96%
inhibition at 1 µM (human ACC1): 93%

COc1cc(C(=O)N2CCC3(CC2)CC(=O)c2cc(-c4nnn[nH]4)ccc2O3)cc2c1ccn2C1CC1 [Example 11, 1′-[(1-Cyclopropyl-4-methoxy-1H-indol-6-yl)carbonyl]-6-(1H-tetrazol-5-yl)spiro[chroman-2,4′-piperidin]-4-one]
inhibition at 1 µM (human ACC2): 98%
inhibition at 1 µM (human ACC1): 99%

CCOc1cc(C(=O)N2CCC3(CC2)CC(=O)c2cc(-c4nnn[nH]4)ccc2O3)cc2c1ccn2C1CC1 [Example 13, 1′-[(1-Cyclopropyl-4-ethoxy-1H-indol-6-yl)carbonyl]-6-(1H-tetrazol-5-yl)spiro[chroman-2,4′-piperidin]-4-one]
inhibition at 1 µM (human ACC2): 99%
inhibition at 1 µM (human ACC1): 100%

CCOc1cc(C(=O)N2CCC3(CC2)CC(=O)c2cc(-c4nnn[nH]4)ccc2O3)cc2c1c(C)cn2C1CC1 [Example 17, 1′-[(1-Cyclopropyl-4-ethoxy-3-methyl-1H-indol-6-yl)carbonyl]-6-(1H-tetrazol-5-yl)spiro[chroman-2,4′-piperidin]-4-one]
inhibition at 1 µM (human ACC2): 99%
inhibition at 1 µM (human ACC1): 98%

COc1cc(C(=O)N2CCC3(CC2)CC(=O)c2cc(-c4cncc(C(=O)O)c4)ccc2O3)cc2c1c(C)cn2C1CC1 [Example 23, 5-{1′-[(1-Cyclopropyl-4-methoxy-3-methyl-1H-indol-6-yl)carbonyl]-4-oxo-spiro[chroman-2,4′-piperidin]-6-yl}nicotinic acid sodium salt]
inhibition at 1 µM (human ACC2): 98%
inhibition at 1 µM (human ACC1): 99%

COc1cc(C(=O)N2CCC3(CC2)CC(=O)c2cc(-c4cncc(C(=O)O)c4)ccc2O3)cc2c1c(Cl)cn2C1CC1 [Example 24, 5-{1′-[(3-Chloro-1-cyclopropyl-4-methoxy-1H-indol-6-yl)carbonyl]-4-oxo-spiro[chroman-2,4′-piperidin]-6-yl}nicotinic acid sodium salt]
inhibition at 1 µM (human ACC2): 100%
inhibition at 1 µM (human ACC1): 99%

CCOc1cc(C(=O)N2CCC3(CC2)CC(=O)c2cc(-c4nnn[nH]4)ccc2O3)cc2c(C3CC3)noc12 [Example 31, 1′-[(3-cyclopropyl-7-ethoxy-1,2-benzisoxazol-5-yl)carbonyl]-6-(1H-tetrazol-5-yl)spiro[chroman-2,4′-piperidin]-4-one]
inhibition at 1 µM (human ACC2): 98%
inhibition at 1 µM (human ACC1): 97%

O=C1CC2(CCN(C(=O)c3cc(OCCO)c4ccn(C5CC5)c4c3)CC2)Oc2ccc(-c3nnn[nH]3)cc21 [Example 36]
inhibition at 1 µM (human ACC2): 99%
inhibition at 1 µM (human ACC1): 99%

CCOc1cc(C(=O)N2CCC3(CC2)CC(=O)c2cc(-c4cncc(C(=O)O)c4)ccc2O3)cc2c1c(C)cn2C1CC1 [Example 45, 5-{1′-[(1-cyclopropyl-4-ethoxy-3-methyl-1H-indol-6-yl)carbonyl]-4-oxospiro[chroman-2,4′-piperidin]-6-yl}nicotinic acid]
inhibition at 1 µM (human ACC2): 100%
inhibition at 1 µM (human ACC1): 100%

CCn1ccc2c(OC)cc(C(=O)N3CCC4(CC3)CC(=O)c3cc(-c5nnn[nH]5)ccc3O4)cc21 [Example 56, 1′-[(1-ethyl-4-methoxy-1H-indol-6-yl)carbonyl]-6-(1H-tetrazol-5-yl)spiro[chroman-2,4′-piperidin]-4-one]
inhibition at 1 µM (human ACC2): 99%
inhibition at 1 µM (human ACC1): 99%

COc1cc(C(=O)N2CCC3(CC2)CC(=O)c2cc(-c4nnc(C(N)=O)[nH]4)ccc2O3)cc2c1ccn2C1CC1 [Example 57, 5-{1′-[(1-cyclopropyl-4-methoxy-1H-indol-6-yl)carbonyl]-4-oxo-spiro[chroman-2,4′-piperidin]-6-yl}-4H-1,2,4-triazole-3-carboxamide]
inhibition at 1 µM (human ACC2): 99%
inhibition at 1 µM (human ACC1): 99%
